Results from patent US12029217B2, “Safened compositions comprising pyridine carboxylate herbicides and isoxadifen” (Corteva Agriscience LLC, priority 2018, dated 2024).

Key:
Type in all cases: in vivo
[1] = tested on: Sorghum halepense (Johnson grass); assay: Greenhouse postemergence visual injury, Johnson grass (SORHA)
From the text: (§1) Seeds of the desired test plant species were planted in a 90:10% v/v (volume/volume) mixture of PRO-MIX® BX (Premier Tech Horticulture, Quakertown, PA, USA) and PROFILE® GREENS GRADE™ (Profile Products LLC, Buffalo Grove, IL, USA) planting mixture, which typically has a pH of 5.2 to 6.2 and an organic matter content of at least 50 percent, in plastic pots with a surface area of 103.2 square centimeters (cm^2). When required to ensure good germination and healthy plants, a fungicide treatment and/or other chemical or physical treatment was applied. The plants were grown for 7-36 days (d) in a greenhouse with an approximate 14-hour (h) photo-period which was maintained at about 23° C. during the day and 22° C. during the night. Nutrients and water were added on a regular basis and supplemental lighting was provided with overhead metal halide 1000-Watt lamps as necessary. The plants were employed for testing when they reached the second or third true leaf stage.
(§2) Emulsifiable concentrates of each of each pyridine carboxylate herbicide (Compound A or Compound B) were prepared at 100 grams acid equivalent per liter (g ae/L). An aliquot of each emulsifiable concentrate was placed in a 25 mL glass vial and diluted with an aqueous mixture of 1.25% (v/v) ACTIROB® B esterified rapeseed oil (Bayer Crop Science, Research Triangle Park, NC, USA) or MSO® Concentrate with LECI-TECH® methylated soybean oil (Loveland Products, Loveland, CO, USA) to obtain concentrated stock solutions at the highest application rate for each herbicide, based upon a 12 milliliter (mL) application volume at a rate of 187 liters per hectare (L/ha). The concentrated stock solutions were further diluted with an aqueous mixture of 1.25% v/v ACTIROB® B or MSO® Concentrate with LECI-TECH® to obtain stock solutions at reduced application rates for each herbicide. Spray solutions of the herbicide combinations (Compound A or Compound B plus safener) were prepared by adding weighed amounts or aliquots of the safener to the stock solutions of Compound A or Compound B to form 12-mL spray solutions in two-way combinations.
(§3) The spray solutions were applied to the plant material with an overhead Mandel track sprayer equipped with 8002E nozzles calibrated to deliver 187 L/ha over an application area of 0.503 square meters (m^2) at a spray height of 18 inches (43 centimeters (cm)) above the average plant canopy. Control plants were sprayed in the same manner with the solvent blank. All herbicide (component a) application rates are given as “g ae/ha” and all safener (component b) application rates are given as “g ai/ha.”
(§4) The treated plants and control plants were placed in a greenhouse as described above and watered by sub-irrigation to prevent wash-off of the test compounds. After 20-22 d, the condition of the test plants as compared with that of the control plants was determined visually and scored on a scale of 0 to 100 percent where 0 corresponds to no injury and 100 corresponds to complete kill.

[2] = tested on: Brassica napus (winter rape); assay: Greenhouse postemergence visual injury, winter rape (BRSNW)
From the text: as §1, §2, §3, §4

[3] = tested on: Amaranthus tamariscinus (common water hemp); assay: Greenhouse postemergence visual injury, common water hemp (AMATA); details: Example 7
From the text: as §1, §2
(§5) The spray solutions were applied to the plant material with an overhead Mandel track sprayer equipped with 8002E nozzles calibrated to deliver 187 L/ha over an application area of 0.503 square meters (m^2) at a spray height of 18 inches (43 centimeters (cm)) above the average plant canopy. […]
as §4

Glycine max (soybean) = assay: Greenhouse postemergence visual injury, soybean (GLXMA)
From the text: as §1, §2, §3, §4

[4] = tested on: Polygonum convolvulus (wild buckwheat); assay: Greenhouse postemergence visual injury, wild buckwheat (POLCO); details: Example 6
From the text: as §1, §2, §5, §4

[5] = tested on: Viola tricolor (wild pansy); assay: Greenhouse postemergence visual injury, wild pansy (VIOTR); details: Example 6
From the text: as §1, §2, §5, §4

[6] = tested on: Setaria faberi (giant foxtail); assay: Greenhouse postemergence visual injury, giant foxtail (SETFA)
From the text: as §1, §2, §3, §4

[7] = tested on: Ipomoea hederacea (ivyleaf morningglory); assay: Greenhouse postemergence visual injury, ivyleaf morningglory (IPOHE); details: Example 6
From the text: as §1, §2, §5, §4

Avena fatua (wild oat) = assay: Greenhouse postemergence visual injury, wild oat (AVEFA); details: Example 6
From the text: as §1, §2, §5, §4

[8] = tested on: Hordeum vulgare (spring barley); assay: Greenhouse postemergence visual injury, spring barley (HORVS)
From the text: as §1, §2, §3, §4

[9] = tested on: Helianthus annuus (common sunflower); assay: Greenhouse postemergence visual injury, common sunflower (HELAN)
From the text: as §1, §2, §3, §4

[10] = tested on: Eleusine indica (goosegrass); assay: Greenhouse postemergence visual injury, goosegrass (ELEIN); details: Example 7
From the text: as §1, §2, §5, §4

[11] = tested on: Salsola kali (Russian thistle); assay: Greenhouse postemergence visual injury, Russian thistle (SASKR); details: Example 1
From the text: as §1, §2, §5, §4

[12] = tested on: Leptochloa chinensis (Chinese sprangletop); assay: Greenhouse postemergence visual injury, Chinese sprangletop (LEFCH); details: Example 6
From the text: as §1, §2, §5, §4

[13] = tested on: Abutilon theophrasti (velvetleaf); assay: Greenhouse postemergence visual injury, velvetleaf (ABUTH); details: Example 6
From the text: as §1, §2, §5, §4

[14] = tested on: Erigeron canadensis (Canada horseweed); assay: Greenhouse postemergence visual injury, Canada horseweed (ERICA)
From the text: as §1, §2, §3, §4

[15] = tested on: Lolium multiflorum (Italian ryegrass); assay: Greenhouse postemergence visual injury, Italian ryegrass (LOLMU)
From the text: as §1, §2, §3, §4

[16] = isoxadifen-ethyl 10 g/ha, Example 7
[17] = isoxadifen-ethyl 20 g/ha, Example 6
[18] = isoxadifen-ethyl 20 g/ha, Example 7
[19] = isoxadifen-ethyl 40 g/ha, Example 6
[20] = isoxadifen-ethyl 80 g/ha, Example 6
[21] = isoxadifen-ethyl 10 g/ha, Example 1
[22] = isoxadifen-ethyl 20 g/ha, Example 1
[23] = isoxadifen-ethyl 40 g/ha, Example 1

SMILES: N#CCOC(=O)c1nc(-c2ccc3cc[nH]c3c2F)c(F)c(N)c1Cl [Compound A, cyanomethyl 4-amino-3-chloro-5-fluoro-6-(7-fluoro-1H-indol-6-yl)pyridine-2-carboxylate]
- % visual injury, Ob ([1]; Compound A 10 g/ha, Example 7): 10%
- % visual injury, Ob ([1]; Compound A 20 g/ha, Example 6): 0%
- % visual injury, Ob ([1]; Compound A 20 g/ha, Example 7): 60%
- % visual injury, Ob ([2]; Compound A 20 g/ha, Example 1): 95%
- % visual injury, Ob ([2]; Compound A 20 g/ha, Example 6): 85%
- % visual injury, Ob ([3]; Compound A 10 g/ha): 98%
- % visual injury, Ob ([3]; Compound A 20 g/ha): 100%
- % visual injury, Ob (Glycine max (soybean); Compound A 10 g/ha, Example 7): 100%
- % visual injury, Ob (Glycine max (soybean); Compound A 20 g/ha, Example 6): 100%
- % visual injury, Ob (Glycine max (soybean); Compound A 20 g/ha, Example 7): 100%
- % visual injury, Ob ([4]; Compound A 20 g/ha): 100%
- % visual injury, Ob ([5]; Compound A 20 g/ha): 30%
- % visual injury, Ob ([6]; Compound A 10 g/ha, Example 7): 85%
- % visual injury, Ob ([6]; Compound A 20 g/ha, Example 6): 65%
- % visual injury, Ob ([6]; Compound A 20 g/ha, Example 7): 95%
- % visual injury, Ob ([7]; Compound A 20 g/ha): 0%
- % visual injury, Ob (Avena fatua (wild oat); Compound A 20 g/ha): 0%
- % visual injury, Ob ([8]; Compound A 20 g/ha, Example 1): 0%
- % visual injury, Ob ([8]; Compound A 40 g/ha, Example 2): 17%
- % visual injury, Ob ([9]; Compound A 20 g/ha, Example 6): 95%
- % visual injury, Ob ([9]; Compound A 40 g/ha, Example 4): 100%
- % visual injury, Ob ([9]; Compound A 40 g/ha, Example 5): 100%
- % visual injury, Ob ([10]; Compound A 10 g/ha): 73%
- % visual injury, Ob ([10]; Compound A 20 g/ha): 93%
- % visual injury, Ob ([11]; Compound A 20 g/ha): 60%
- % visual injury, Ob ([12]; Compound A 20 g/ha): 60%
- % visual injury, Ob ([13]; Compound A 20 g/ha): 95%
- % visual injury, Ob ([14]; Compound A 10 g/ha, Example 7): 90%
- % visual injury, Ob ([14]; Compound A 20 g/ha, Example 6): 95%
- % visual injury, Ob ([14]; Compound A 20 g/ha, Example 7): 95%
- % visual injury, Ob ([15]; Compound A 10 g/ha, Example 7): 18%
- % visual injury, Ob ([15]; Compound A 20 g/ha, Example 6): 5%
- % visual injury, Ob ([15]; Compound A 20 g/ha, Example 7): 60%

SMILES: CCOC(=O)C1=NOC(c2ccccc2)(c2ccccc2)C1 [Isoxadifen-ethyl, isoxadifen-ethyl]
- % visual injury, Ob [1, 16]: 0%
- % visual injury, Ob [1, 17]: 0%
- % visual injury, Ob [1, 18]: 0%
- % visual injury, Ob [1, 19]: 0%
- % visual injury, Ob [1, 20]: 0%
- % visual injury, Ob [2, 21]: 0%
- % visual injury, Ob [2, 22]: 0%
- % visual injury, Ob [2, 17]: 0%
- % visual injury, Ob [2, 23]: 0%
- % visual injury, Ob [2, 19]: 0%
- % visual injury, Ob [2, 20]: 0%
- % visual injury, Ob ([3]; isoxadifen-ethyl 10 g/ha): 0%
- % visual injury, Ob ([3]; isoxadifen-ethyl 20 g/ha): 0%
- % visual injury, Ob (Glycine max (soybean); [16]): 0%
- % visual injury, Ob (Glycine max (soybean); [17]): 0%
- % visual injury, Ob (Glycine max (soybean); [18]): 0%
- % visual injury, Ob (Glycine max (soybean); [19]): 0%
- % visual injury, Ob (Glycine max (soybean); [20]): 0%
- % visual injury, Ob ([4]; isoxadifen-ethyl 20 g/ha): 0%
- % visual injury, Ob ([4]; isoxadifen-ethyl 40 g/ha): 0%
- % visual injury, Ob ([4]; isoxadifen-ethyl 80 g/ha): 0%
- % visual injury, Ob ([5]; isoxadifen-ethyl 20 g/ha): 0%
- % visual injury, Ob ([5]; isoxadifen-ethyl 40 g/ha): 0%
- % visual injury, Ob ([5]; isoxadifen-ethyl 80 g/ha): 0%
- % visual injury, Ob [6, 16]: 0%
- % visual injury, Ob [6, 17]: 0%
- % visual injury, Ob [6, 18]: 0%
- % visual injury, Ob [6, 19]: 0%
- % visual injury, Ob [6, 20]: 0%
- % visual injury, Ob ([7]; isoxadifen-ethyl 20 g/ha): 0%
- % visual injury, Ob ([7]; isoxadifen-ethyl 40 g/ha): 0%
- % visual injury, Ob ([7]; isoxadifen-ethyl 80 g/ha): 0%
- % visual injury, Ob (Avena fatua (wild oat); isoxadifen-ethyl 20 g/ha): 0%
- % visual injury, Ob (Avena fatua (wild oat); isoxadifen-ethyl 40 g/ha): 0%
- % visual injury, Ob (Avena fatua (wild oat); isoxadifen-ethyl 80 g/ha): 0%
- % visual injury, Ob [8, 21]: 0%
- % visual injury, Ob [8, 22]: 0%
- % visual injury, Ob ([8]; isoxadifen-ethyl 20 g/ha, Example 2): 0%
- % visual injury, Ob [8, 23]: 0%
- % visual injury, Ob ([8]; isoxadifen-ethyl 40 g/ha, Example 2): 0%
- % visual injury, Ob ([8]; isoxadifen-ethyl 80 g/ha, Example 2): 0%
- % visual injury, Ob ([8]; isoxadifen-ethyl 120 g/ha, Example 2): 0%
- % visual injury, Ob ([9]; isoxadifen-ethyl 20 g/ha, Example 4): 0%
- % visual injury, Ob ([9]; isoxadifen-ethyl 20 g/ha, Example 5): 0%
- % visual injury, Ob [9, 17]: 0%
- % visual injury, Ob ([9]; isoxadifen-ethyl 40 g/ha, Example 4): 0%
- % visual injury, Ob ([9]; isoxadifen-ethyl 40 g/ha, Example 5): 0%
- % visual injury, Ob [9, 19]: 0%
- % visual injury, Ob ([9]; isoxadifen-ethyl 80 g/ha, Example 4): 0%
- % visual injury, Ob ([9]; isoxadifen-ethyl 80 g/ha, Example 5): 0%
- % visual injury, Ob [9, 20]: 0%
- % visual injury, Ob ([9]; isoxadifen-ethyl 120 g/ha, Example 4): 0%
- % visual injury, Ob ([9]; isoxadifen-ethyl 120 g/ha, Example 5): 0%
- % visual injury, Ob ([10]; isoxadifen-ethyl 10 g/ha): 0%
- % visual injury, Ob ([10]; isoxadifen-ethyl 20 g/ha): 0%
- % visual injury, Ob ([11]; isoxadifen-ethyl 10 g/ha): 0%
- % visual injury, Ob ([11]; isoxadifen-ethyl 20 g/ha): 0%
- % visual injury, Ob ([11]; isoxadifen-ethyl 40 g/ha): 0%
- % visual injury, Ob ([12]; isoxadifen-ethyl 20 g/ha): 0%
- % visual injury, Ob ([12]; isoxadifen-ethyl 40 g/ha): 0%
- % visual injury, Ob ([12]; isoxadifen-ethyl 80 g/ha): 0%
- % visual injury, Ob ([13]; isoxadifen-ethyl 20 g/ha): 0%
- % visual injury, Ob ([13]; isoxadifen-ethyl 40 g/ha): 0%
- % visual injury, Ob ([13]; isoxadifen-ethyl 80 g/ha): 0%
- % visual injury, Ob [14, 16]: 0%
- % visual injury, Ob [14, 17]: 0%
- % visual injury, Ob [14, 18]: 0%
- % visual injury, Ob [14, 19]: 0%
- % visual injury, Ob [14, 20]: 0%
- % visual injury, Ob [15, 16]: 0%
- % visual injury, Ob [15, 17]: 0%
- % visual injury, Ob [15, 18]: 0%
- % visual injury, Ob [15, 19]: 0%
- % visual injury, Ob [15, 20]: 0%
